From US7884127B2, “Inhibitors of cyclin dependent kinases and their use” (Pirimal Life Sciences Ltd., priority 2002, dated 2011)
Counter-ions that a name gives are not always drawn.

Columns and labels:
HeLa Cervix [1] = assay: In vitro cell proliferation assay (3H-Thymidine uptake), HeLa; assay type: cell-based; settings: Homo sapiens, 72 hours
Method: (§1) In Vitro Cell Proliferation and Cytotoxicity Assays:
(§2) Exponentially growing cultures of ten human cancerous cell lines (HL-60 Promyelocytic Leukemia, PC-3 Prostate, H-460 Lung, MDA-MB-231 Breast, MCF-7 Breast, HeLa Cervix, Colo-205 Colon, H9 Lymphoma (T Cells), U-937 Histiocytic Lymphoma (monocytes) and CaCO-2 Colon) obtained from NCCS, Pune, India were used. The in vitro cell proliferation (NCI, USA protocol) and cytotoxicity assays were carried out using standard procedures viz. ^3H-Thymidine uptake and MTS assay, respectively (For ^3H-Thymidine uptake: Cell Biology, A Laboratory Handbook, 1998, Vol 1 Ed Julio E. Celis, and For MTS assay: Promega Protocol, USA, 2000). In the ^3H-Thymidine uptake assay, cells were harvested after 72 hours onto GF/B unifilter plates (Packard, USA) using a Packard Filtermate Universal harvester and the plates were counted on a Packard TopCount 96-well liquid scintillation counter. The concentration of compound at which 50% of proliferative activity was inhibited (IC50) and the degree of toxicity of compound were calculated for representative compounds and their pharmaceutically acceptable salts described in the Examples.

H460 Lung [2] = assay: In vitro cell proliferation assay (3H-Thymidine uptake), H460; assay type: cell-based; settings: Homo sapiens, NCI-H460, 72 hours
Method: as §1, §2

MDAMB-231 Breast [3] = assay: In vitro cell proliferation assay (3H-Thymidine uptake), MDA-MB-231; assay type: cell-based; settings: Homo sapiens, 72 hours
Method: as §1, §2

PC-3 Prostate [4] = assay: In vitro cell proliferation assay (3H-Thymidine uptake), PC-3; assay type: cell-based; settings: Homo sapiens, 72 hours
Method: as §1, §2

HeLa Cervix [5] = assay: Cytotoxicity assay (MTS), HeLa; assay type: cell-based, human
Method: as §1, §2

MDAMB-231 Breast [6] = assay: Cytotoxicity assay (MTS), MDA-MB-231; assay type: cell-based, human
Method: as §1, §2

MCF-7 Breast [7] = assay: Cytotoxicity assay (MTS), MCF-7; assay type: cell-based, human
Method: as §1, §2

[8] = system: U-937 Histiocytic lymphoma (monocytes); assay: In vitro cell proliferation assay (3H-Thymidine uptake), U-937; assay type: cell-based; settings: Homo sapiens, 72 hours
Method: as §1, §2

[9] = system: U-937 Histiocytic lymphoma (monocytes); assay: Cytotoxicity assay (MTS), U-937; assay type: cell-based, human
Method: as §1, §2

H460 Lung [10] = assay: Cytotoxicity assay (MTS), H460; assay type: cell-based, human
Method: as §1, §2

MCF-7 Breast [11] = assay: In vitro cell proliferation assay (3H-Thymidine uptake), MCF-7; assay type: cell-based; settings: Homo sapiens, MCF7, 72 hours
Method: as §1, §2

PC-3 Prostate [12] = assay: Cytotoxicity assay (MTS), PC-3; assay type: cell-based, human
Method: as §1, §2

CN1CC[C@@H](c2c(O)cc(O)c3c(=O)cc(-c4ccccc4Br)oc23)[C@@H]1CO [Example 17, (+)-trans-2-(2-Bromo-phenyl)-5,7-dihydroxy-8-(2-hydroxymethyl-1-methyl-pyrrolidin-3-yl)-chromen-4-one]
melting point: 235 to 237 °C
IC50 (HeLa Cervix [1]): 100 to 1000 nM
IC50 (H460 Lung [2]): > 10 µM
IC50 (MDAMB-231 Breast [3]): 100 nM
IC50 (PC-3 Prostate [4]): 1000 to 10000 nM
degree of toxicity HeLa Cervix (HeLa Cervix [5]): + (30-50% toxic)
degree of toxicity MDAMB-231 Breast (MDAMB-231 Breast [6]): NT (not toxic ≦30%)
degree of toxicity MCF-7 Breast (MCF-7 Breast [7]): + (30-50% toxic)
IC50 [8]: 100 to 1000 nM
degree of toxicity U-937 Histiocytic lymphoma (monocytes) [9]: + (30-50% toxic)
degree of toxicity H460 Lung (H460 Lung [10]): NT (not toxic ≦30%)
IC50 (MCF-7 Breast [11]): 500 to 1000 nM
degree of toxicity PC-3 Prostate (PC-3 Prostate [12]): NT (not toxic ≦30%)

CN1CC[C@@H](c2c(O)cc(O)c3c(=O)cc(-c4ccccc4Cl)oc23)[C@@H]1CO [Example 14A, (+)-trans-2-(2-Chloro-phenyl)-5,7-dihydroxy-8-(2-hydroxymethyl-1-methyl-pyrrolidin-3-yl)-chromen-4-one]
IC50 (HeLa Cervix [1]): 100 to 500 nM
IC50 (H460 Lung [2]): 5 to 10 µM
IC50 (MDAMB-231 Breast [3]): 500 to 1000 nM
IC50 (PC-3 Prostate [4]): 500 to 1000 nM
degree of toxicity HeLa Cervix (HeLa Cervix [5]): ++ (50-70% toxic)
degree of toxicity MDAMB-231 Breast (MDAMB-231 Breast [6]): NT (not toxic ≦30%)
degree of toxicity MCF-7 Breast (MCF-7 Breast [7]): NT (not toxic ≦30%)
IC50 [8]: 100 to 1000 nM
degree of toxicity U-937 Histiocytic lymphoma (monocytes) [9]: + (30-50% toxic)
degree of toxicity H460 Lung (H460 Lung [10]): NT (not toxic ≦30%)
IC50 (MCF-7 Breast [11]): 500 to 1000 nM
degree of toxicity PC-3 Prostate (PC-3 Prostate [12]): ++ (50-70% toxic)

CN1CC[C@H](c2c(O)cc(O)c3c(=O)cc(-c4ccccc4Cl)oc23)[C@H](O)C1 (relative stereo) [Flavopiridol, cis-{2-(2-Chloro-phenyl)-5,7-dihydroxy-8-(3-hydroxy-1-methyl-piperidin-4-yl)-chromen-4-one hydrochloride}, reference compound]
IC50 (HeLa Cervix [1]): 100 to 500 nM
IC50 (H460 Lung [2]): 0.05 µM
IC50 (MDAMB-231 Breast [3]): 100 nM
IC50 (PC-3 Prostate [4]): 50 to 100 nM
degree of toxicity HeLa Cervix (HeLa Cervix [5]): +++ (above 70% toxic)
degree of toxicity MDAMB-231 Breast (MDAMB-231 Breast [6]): ++ (50-70% toxic)
degree of toxicity MCF-7 Breast (MCF-7 Breast [7]): + (30-50% toxic)
IC50 [8]: 100 nM
degree of toxicity U-937 Histiocytic lymphoma (monocytes) [9]: ++ (50-70% toxic)
degree of toxicity H460 Lung (H460 Lung [10]): + (30-50% toxic)
IC50 (MCF-7 Breast [11]): 500 nM
degree of toxicity PC-3 Prostate (PC-3 Prostate [12]): ++ (50-70% toxic)

CN1CC[C@@H](c2c(O)cc(O)c3c(=O)cc(-c4ccc([N+](=O)[O-])cc4Br)oc23)[C@@H]1CO [Example 42, (+)-trans-2-(2-Bromo-4-nitro-phenyl)-5,7-dihydroxy-8-(2-hydroxymethyl-1-methyl-pyrrolidin-3-yl)-chromen-4-one]
melting point: 186 °C

CN1CC[C@@H](c2c(O)cc(O)c3c(=O)cc(-c4cccc(F)c4Cl)oc23)[C@@H]1CO [Example 134, (+)-trans-2-(2-Chloro-3-fluoro-phenyl)-5,7-dihydroxy-8-(2-hydroxymethyl-1-methyl-pyrrolidin-3-yl)-chromen-4-one]
melting point: 221 to 223 °C

CN1CC[C@@H](c2c(O)cc(O)c3c(=O)cc(-c4ccc(O)cc4Cl)oc23)[C@@H]1CO (racemic) [Example 104, (±)-trans-2-(2-Chloro-4-hydroxy-phenyl)-5,7-dihydroxy-8-(2-hydroxymethyl-1-methyl-pyrrolidin-3-yl)-chromen-4-one]
melting point: > 300 °C

CN1CC[C@@H](c2c(O)cc(O)c3c(=O)cc(-c4cccc(F)c4)oc23)[C@@H]1CO [Example 76, (+)-trans-2-(3-Fluoro-phenyl)-5,7-dihydroxy-8-(2-hydroxymethyl-1-methyl-pyrrolidin-3-yl)-chromen-4-one]
melting point: 218 to 220 °C

COc1cc(OC)c2c(=O)cc(-c3ccccc3Cl)oc2c1[C@@H]1CCN(C)[C@H]1CO (racemic) [Example 7, (±)-trans-2-(2-Chloro-phenyl)-8-(2-hydroxymethyl-1-methyl-pyrrolidin-3-yl)-5,7-dimethoxy-chromen-4-one]
melting point: 95 to 97 °C

CN1CC[C@@H](c2c(O)cc(O)c3c(=O)cc(-c4ccccc4F)oc23)[C@@H]1CO [Example 21, (+)-trans-2-(2-Fluoro-phenyl)-5,7-dihydroxy-8-(2-hydroxymethyl-1-methyl-pyrrolidin-3-yl)-chromen-4-one]
melting point: 206 to 208 °C

CN1CC[C@@H](c2c(O)cc(O)c3c(=O)cc(-c4ccccc4Cl)oc23)[C@@H]1C(=O)O (racemic) [Example 144, (±)-trans-3-[2-(2-Chloro-phenyl)-5,7-dihydroxy-4-oxo-4H-chromen-8-yl]-1-methyl-pyrrolidine-2-carboxylic acid]
melting point: 295 to 297 °C

CN1CC[C@@H](c2c(O)cc(O)c3c(=O)cc(-c4ccc(C#N)cc4Cl)oc23)[C@@H]1CO [Example 98, (+)-trans-3-Chloro-4-[5,7-dihydroxy-8-(2-hydroxymethyl-1-methyl-pyrrolidin-3-yl)-4-oxo-4H-chromen-2-yl]-benzonitrile]
melting point: 237 to 239 °C

CN1CC[C@@H](c2c(O)cc(O)c3c(=O)cc(-c4cccc(F)c4Br)oc23)[C@@H]1CO [Example 136, (+)-trans-2-(2-Bromo-3-fluoro-phenyl)-5,7-dihydroxy-8-(2-hydroxymethyl-1-methyl-pyrrolidin-3-yl)-chromen-4-one]
melting point: 237 to 239 °C

COc1cc(OC)c2c(=O)cc(-c3ccccc3Cl)oc2c1[C@@H]1CCN(C)[C@H]1C(=O)O (racemic) [Example 143, (±)-trans-3-[2-(2-Chloro-phenyl)-5,7-dimethoxy-4-oxo-4H-chromen-8-yl]-1-methyl-pyrrolidine-2-carboxylic acid]
melting point: 165 to 167 °C

CN1CC[C@@H](c2c(O)cc(O)c3c(=O)cc(-c4cc(F)ccc4Cl)oc23)[C@@H]1CO.CS(=O)(=O)O (racemic) [Example 25, (±)-trans-2-(2-Chloro-5-fluoro-phenyl)-5,7-dihydroxy-8-(2-hydroxymethyl-1-methyl-pyrrolidin-3-yl)-chromen-4-one methane sulfonate]
melting point: 192 to 193 °C

CN1CC[C@@H](c2c(O)cc(O)c3c(=O)cc(-c4cc(Cl)ccc4Br)oc23)[C@@H]1CO [Example 140, (+)-trans-2-(2-Bromo-5-chloro-phenyl)-5,7-dihydroxy-8-(2-hydroxymethyl-1-methyl-pyrrolidin-3-yl)-chromen-4-one]
melting point: 233 to 235 °C
